Literature values in US7354941B2, “Nicotinamide benzofused-heterocyclyl derivatives useful as selective inhibitors of PDE4 isozymes” (Pfizer Products Inc., priority 2000, dated 2008).
pIC50: −log10 of the molar value. Read-outs that look alike come from different tables or passages of the source.

What was measured:
PDE4 = conditions: cited from earlier work
TNFproduction = conditions: read-out: IC50, TNF production; cited from earlier work
canine tracheal PDE4 = conditions: at 100 nM; cited from earlier work
[1] = system: PDE4 derived from tumor cells; conditions: cited from earlier work
tumor cells = conditions: cited from earlier work
catalytic site (Sc) = conditions: compared with SB-207,499; cited from earlier work
[2] = system: patients with bronchial asthma; conditions: cited from earlier work
[3] = system: high-affinity rolipram binding site (Sr); conditions: cited from earlier work
[4] = rat; cited from earlier work
[5] = system: antigen-induced eosinophilia; conditions: rat; cited from earlier work
[6] = rat; cited from earlier work; remark: listed apart in the source
PDE4 in U937 cells = conditions: cited from earlier work
[7] = 54 subjects, doses up to 400 mg; cited from earlier work
[8] = system: early phase bronchoconstriction; conditions: in vivo; cited from earlier work
guinea-pig lung PDE4 = conditions: cited from earlier work
[9] = system: LPS-stimulated ex vivo TNF release and PHA induced lymphocyte proliferation; conditions: oral dose of 300 mg; cited from earlier work
[10] = system: antigen-induced bronchoconstriction; conditions: guinea-pig; cited from earlier work
bronchitis = conditions: in vivo; cited from earlier work
[11] = standard in vitro guinea-pig models of asthma; cited from earlier work
bone loss = conditions: serial oral administrations; cited from earlier work
[12] = system: lipopolysaccharide-induced mesenteric blood flow fall; conditions: dog, in vivo; cited from earlier work
[13] = system: human peripheral blood mononuclear cells (HPBM); conditions: normal patients and subjects with atopic dermatitis; cited from earlier work
bone marrow culture = conditions: cited from earlier work
[14] = system: lipopolysaccharide-induced bowel erythrocyte extravasation; conditions: cited from earlier work; for lipopolysaccharide-induced bowel erythrocyte extravasation: pretreatment i.p. 3×, rats; for lipopolysaccharide induced erythrocyte extravasation in rats and intestinal hypoperfusion in dogs: rat, in vivo
PBMC = conditions: cited from earlier work
[15] = system: chronic relapsing experimental allergic encephalomyelitis; conditions: SJL mice; cited from earlier work
[16] = system: isolated pulmonary artery rings; conditions: rings from normal rats and rats with hypoxia-induced pulmonary hypertension; cited from earlier work
[17] = system: collagen II induced arthritis; conditions: cited from earlier work
colitis = conditions: rat; cited from earlier work
[18] = system: experimental allergic encephalomyelitis; conditions: marmoset; cited from earlier work
[19] = system: croton oil-induced ear inflammation; conditions: mouse; cited from earlier work
[20] = system: T-cell mediated hepatic failure; conditions: cited from earlier work

## COc1ccc(C(CC(N)=O)N2C(=O)c3ccccc3C2=O)cc1OC1CCCC1 (centres unmarked) [(0.0.32)]
PDE4
  pIC50: 10.38
TNFproduction
  pIC50: 6.89

## COc1ccc(C(=O)Cc2c(Cl)c[n+]([O-])cc2Cl)c2c1OCCCCO2 [(0.0.49)]
Canine tracheal PDE4
  inhibition of canine tracheal PDE4: almost complete inhibition

## Clc1nc2c(N3CCCC3)nc(N3CCNCC3)nc2nc1NCc1ccccc1 [(0.0.55)]
[1]
  pIC50: 7.80
Tumor cells
  growth of tumor cells: inhibit the growth of tumor cells at micromolar concentrations

## COc1ccc([C@H](Cc2ccncc2)c2ccccc2)cc1OC1CCCC1 [CDP840]
Catalytic site (Sc)
  potency at the Sc: significantly higher potency at the Sc than does SB-207,499
[2]; 9.5 days oral, 15 and 30 mg
  late reactions to inhaled allergen: suppression of late reactions to inhaled allergen
[2]; human, in vivo
  adverse events of nausea or headache: without any adverse events of nausea or headache
  late-phase response in the treatment of asthma: significant inhibition of late-phase response
[3]
  affinity at the Sr: comparatively low affinity at the Sr

## Cc1cc2c3c(c1)C(c1ccccc1)=N[C@@H](NC(=O)c1ccncc1)C(=O)N3CC2 [CI-1018]
[4]
  ED50, oral potency: 5 mg/kg
[5]
  inhibition of antigen-induced eosinophilia: active
[6]
  oral bioavailability: 57%
PDE4 in U937 cells
  pIC50: 5.96
[7]
  adverse events: no adverse events were reported

## CCOc1cc2cc(CO)c(CO)c(-c3ccn(CCOC)c(=O)c3)c2cc1OCC [Example T-440]
[8]
  inhibition of early and late phase bronchoconstriction, BAL eosinophilia, ozone-induced AHR and airway epithelial injury: activity

## CCOc1cc2cc(CO)c(CO)c(-c3ccnc(-n4nc(-c5cccnc5)c5ccccc5c4=O)c3)c2cc1OCC [Example T-2585]
guinea-pig lung PDE4
  pIC50: 9.89

## CCNc1ncn(Cc2ccc(OC)c(OC3CCCC3)c2)c2nc(C(C)C)nc1-2 [Example V-11294A]
[9]
  TNF levels and lymphocyte proliferation: effective in reducing TNF levels and lymphocyte proliferation
[10]
  inhibition of antigen-induced bronchoconstriction: active

## Cc1c[n+]([O-])ccc1CC(c1ccc(C(O)(C(F)(F)F)C(F)(F)F)cc1)c1ccc(OC(F)F)c(OC(F)F)c1 [L-826,141]
bronchitis
  activity in a rat model of bronchitis: activity

## O=C(Nc1c(Cl)cncc1Cl)c1ccc(OC(F)F)c(OCC2CC2)c1 [Roflumilast]
[11]
  pIC50: 8.46

## CCCCn1c(=O)c2c(ncn2CC(C)=O)n(CCCC)c1=O [denbufylline]
Bone loss
  bone mineral density of femurs: inhibit the decrease in the bone mineral density of femurs
[12]
  potency relative to pentoxifylline in inhibiting mesenteric blood flow fall: 100 fold
[13]
  inhibition of the proliferation of HPBM: concentration-related inhibition
Bone marrow culture
  mineralized nodules and osteoclast-like cells: increase in the number of mineralized nodules and a decrease in the number of osteoclast-like cells
[14]
  lipopolysaccharide-induced bowel erythrocyte extravasation: reduces lipopolysaccharide-induced bowel erythrocyte extravasation
  lipopolysaccharide induced erythrocyte extravasation in rats and intestinal hypoperfusion in dogs: attenuated

## COc1ccc(C2CNC(=O)C2)cc1OC1CCCC1 (centres unmarked) [rolipram]
PBMC; PHA stimulated atopic dermatitis PBMC proliferation
  pIC50: 6.55
PBMC; PHA stimulated normal PBMC proliferation
  pIC50: 5.59
[15]
  clinical signs and pathological changes: ameliorates clinical signs and pathological changes
[16]
  relaxant activities of isoproterenol and forskolin: potentiates the relaxant activities of isoproterenol and forskolin
[17]; 2 mg/kg twice daily for five days before the onset of arthritis
  appearance of arthritic symptoms: significantly delayed the appearance of arthritic symptoms
[17]; 3 mg/kg twice daily when arthritis was apparent
  development of the disease, arthritis severity: progression of severity was halted
[17]; rat, in vivo
  TNF-α and IFN mRNA expression in regional lymph nodes: strong down-regulation of TNF-α and IFN7 mRNA expression
[13]
  inhibition of the proliferation of HPBM: concentration-related inhibition
colitis
  effects in dextran sulfate induced colitis model: beneficial effects comparable to prednisolone
[18]
  clinical signs and MRI abnormalities: suppress the appearance of clinical signs and abolish abnormalities in MRI imaging
[19]
  topical doses inhibiting croton oil-induced ear inflammation (as low as): 0.03 mg per ear
[14]
  lipopolysaccharide-induced bowel erythrocyte extravasation: reduces lipopolysaccharide-induced bowel erythrocyte extravasation
  lipopolysaccharide induced erythrocyte extravasation in rats and intestinal hypoperfusion in dogs: attenuated
[20]; 0.1 to 10 mg/kg i.p. 30 minutes before challenge
  plasma TNF-α and INF-γ concentrations: significantly reduce plasma TNF-α and INF-γ concentrations
[20]; 0.1 to 10 mg/kg i.p.
  IL-10 levels: significantly elevates IL-10 levels
  plasma activities of ALT, AST, and SDH: dose-dependently inhibited
[20]; mouse, in vivo
  concanavalin A-induced IL4 release: suppress concanavalin A-induced IL4 release
